Results on two compounds are retold here after patent publication US10308683B2, “Bicyclic lipolantipeptide, preparation and use as antimicrobial agent” (priority 2015, dated 2019).

Assay [1] concerns S. pneumoniae 6883 (Penicillin resistant). The conditions noted are these: Table 3, Gram-positive aerobe.
The subject of assay [2] is E. faecium 31430797 (Van B resistant). Particulars: Table 3, Gram-positive aerobe.
Assay [3] has as its system S. epidermidis 31435861 (Methicillin resistant). Particulars: Table 3, Gram-positive aerobe.
The subject of another assay is S. aureus - USA300. Particulars: Table 2.
For assay [4], the system named is S. aureus - ATCC 1683 (Methicillin resistant). The conditions noted are these: for Minimal Inhibitory Concentration (MIC): Table 2, S. aureus - ATCC 1683 (Methicillin resistant).
A further assay has as its system M. tuberculosis H37Rv. Particulars: Table 3, Mycobacteria.
Assay [5] deals with E. faecium 31152980 (Van A resistant). The conditions noted are these: Table 3, Gram-positive aerobe.
Assay [6] has as its system S. aureus - ATCC 13709 (Fully susceptible). The assay can be described thus: MIC, CLSI dilution susceptibility test (aerobic). Format: cell-based. Particulars: for Minimal Inhibitory Concentration (MIC): Table 2, S. aureus - ATCC 13709 (Fully susceptible). From the text:
Clinical and Laboratory Standards Institute Document M07-A10. • 2. […] Clinical and Laboratory Standards Institute Document M11-A8. • 3.

The subject of the next assay is S. agalactiae 31432663. The conditions noted are these: Table 3, Gram-positive aerobe. The procedure:
(§1) Methods for Dilution Antibacterial Susceptibility Tests for Bacteria That Grow Aerobically; Approved Standard—Tenth Edition (2015). Clinical and Laboratory Standards Institute Document M07-A10. • 2. Methods for Antimicrobial Susceptibility Testing of Anaerobic Bacteria; Approved Standard—Eighth Edition (2012). Clinical and Laboratory Standards Institute Document M11-A8. • 3. Antimycobacterial activity was determined as described in Journal of Clinical Microbiology (2009, 47:1773-1780) by Springer et al. Quantitative drug susceptibility testing of Mycobacterium tuberculosis by use of MGIT 960 and EpiCenter Instrumentation.

Assay [7] concerns E. faecium ATCC1858 (Vancomycin (Van) sensitive). Particulars: Table 3, Gram-positive aerobe. The procedure: as §1
In a further assay the test system is S. pyogenes 37352281. The conditions noted are these: Table 3, Gram-positive aerobe. The method, then:
as §1

Assay [8] deals with S. epidermidis 37361192 (Methicillin sensitive). The conditions noted are these: Table 3, Gram-positive aerobe. The method, then: as §1
The next assay has as its system S. oralis 39151368. The conditions noted are these: Table 3, Gram-positive aerobe. The method, then:
as §1

A further assay has as its system S. mitis 39050149. The conditions noted are these: Table 3, Gram-positive aerobe. The method, then: as §1
In a further assay the test system is P. acnes 1201. The conditions noted are these: Table 3, Gram-positive anaerobe. The procedure:
as §1

For assay [9], the system named is S. pneumoniae - ATCC 33400. The conditions noted are these: Table 2. The method, then: as §1
The next assay deals with C. difficile ATCC 700057. Particulars: Table 3, Gram-positive anaerobe. The method, then: as §1
The subject of assay [10] is S. pneumoniae R119 (R6 like) (Penicillin sensitive). The conditions noted are these: Table 3, Gram-positive aerobe. The procedure:
as §1

By MIC is commonly meant the least concentration at which growth counts as inhibited. Regarding `C/N=C(\NC)NCCCCCCCCCCCCCCCCC(=O)NC(C)C(=O)NC1CC2(CS/C=C\NC(=O)C(CO)NC(=O)C(CCC(N)=O)NC2=O)NC(=O)CNC(=O)C(CC(C)C)NC1=O` (stereo not drawn) [Compound C], the minimal inhibitory concentration (MIC) in assay [1] was no more than 0.125 µg/mL; in assay [2], no more than 0.25 µg/mL; in assay [3], no more than 0.25 µg/mL; in assay [4] (Table 3, Gram-positive aerobe, S. aureus ATCC1683, Methicillin resistant), no more than 0.3 µg/mL; in the assay with M. tuberculosis H37Rv, no more than 1 µg/mL; in [5] it was no more than 0.25 µg/mL. For the same compound, the minimal inhibitory concentration (MIC) was no more than 0.04 µg/mL in assay [6] (Table 3, Gram-positive aerobe, S. aureus ATCC13709, Methicillin sensitive); no more than 0.25 µg/mL with S. agalactiae 31432663; no more than 0.5 µg/mL in [7]; no more than 0.5 µg/mL in the assay on S. pyogenes 37352281; no more than 0.25 µg/mL in [8]; no more than 0.25 µg/mL with S. oralis 39151368. The minimal inhibitory concentration (MIC) against S. mitis 39050149 is no more than 0.25 µg/mL; with P. acnes 1201, no more than 0.06 µg/mL; against C. difficile ATCC 700057 it was no more than 0.25 µg/mL; in [10] it was no more than 0.125 µg/mL. The “Minimal Inhibitory Concentration (MIC)” value in the assay with S. aureus - USA300 was no more than 0.08 µg/mL; in [4], no more than 0.3 µg/mL; in assay [6] it was no more than 0.04 µg/mL; in assay [9], no more than 0.08 µg/mL.

In the case of `C/N=C(\NC)NCCCCCCCCCCCCCCC(=O)NC(C)C(=O)NC1CC2(CS/C=C\NC(=O)C(CO)NC(=O)C(CCC(N)=O)NC2=O)NC(=O)CNC(=O)C(CC(C)C)NC1=O` (stereo not drawn) [Compound A], the “Minimal Inhibitory Concentration (MIC)” value is no more than 0.08 µg/mL in the assay on S. aureus - USA300, no more than 0.3 µg/mL in assay [4], no more than 0.04 µg/mL in assay [6] and no more than 0.15 µg/mL in assay [9].
